Tests used:
Assay in all cases: Kinase panel (Carna)
Type in all cases: biochemical
ARG = biological target: T1, ARG (Homo sapiens, UniProt P42684)
T1 construct: purchased Carna Biosciences
Description: (§1) Detailed information on the assay conditions is available on the website of Carna Biosciences (http://www.carnabio.com).

DDR1 = biological target: T2, DDR1 (Homo sapiens, UniProt Q08345)
T2 construct: purchased Carna Biosciences

EGFR = biological target: T3, EGFR (Homo sapiens, UniProt P00533)
T3 construct: purchased Carna Biosciences

EPHA1 = biological target: T4, EPHA1 (Homo sapiens, UniProt P21709)
T4 construct: purchased Carna Biosciences

EPHA2 = biological target: T5, EPHA2 (Homo sapiens, UniProt P29317)
T5 construct: purchased Carna Biosciences

EPHA6 = biological target: T6, EPHA6 (Homo sapiens, UniProt Q9UF33)
T6 construct: purchased Carna Biosciences
T6 sequence (Q9UF33 23-1036): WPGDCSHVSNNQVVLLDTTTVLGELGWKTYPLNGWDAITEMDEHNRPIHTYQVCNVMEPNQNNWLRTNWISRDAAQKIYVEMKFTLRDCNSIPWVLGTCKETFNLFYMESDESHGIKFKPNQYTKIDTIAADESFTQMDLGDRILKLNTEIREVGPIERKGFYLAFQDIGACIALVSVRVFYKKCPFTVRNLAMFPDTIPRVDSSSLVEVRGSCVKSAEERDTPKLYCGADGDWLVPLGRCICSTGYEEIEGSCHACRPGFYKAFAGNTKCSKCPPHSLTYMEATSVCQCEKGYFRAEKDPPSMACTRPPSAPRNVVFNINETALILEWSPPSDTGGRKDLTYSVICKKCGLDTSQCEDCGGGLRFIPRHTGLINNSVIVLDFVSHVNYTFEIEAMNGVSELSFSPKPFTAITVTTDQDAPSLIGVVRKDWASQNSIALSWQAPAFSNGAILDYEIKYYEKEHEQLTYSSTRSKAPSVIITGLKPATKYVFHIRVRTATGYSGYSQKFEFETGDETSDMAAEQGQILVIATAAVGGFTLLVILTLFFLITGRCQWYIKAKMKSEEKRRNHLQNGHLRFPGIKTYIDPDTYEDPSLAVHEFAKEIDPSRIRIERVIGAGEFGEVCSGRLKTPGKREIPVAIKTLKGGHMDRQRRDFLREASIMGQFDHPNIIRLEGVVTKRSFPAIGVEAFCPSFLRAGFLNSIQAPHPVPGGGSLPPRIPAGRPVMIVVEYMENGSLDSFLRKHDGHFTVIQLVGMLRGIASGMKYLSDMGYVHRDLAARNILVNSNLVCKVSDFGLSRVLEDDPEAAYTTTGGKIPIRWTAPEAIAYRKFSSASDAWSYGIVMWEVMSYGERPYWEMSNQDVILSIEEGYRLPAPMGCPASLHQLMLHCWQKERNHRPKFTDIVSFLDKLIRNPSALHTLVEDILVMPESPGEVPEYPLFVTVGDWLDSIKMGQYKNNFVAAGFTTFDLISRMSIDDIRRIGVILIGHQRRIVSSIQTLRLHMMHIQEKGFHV

FLT3 = biological target: T7, FLT3 (Homo sapiens, UniProt P36888)
T7 construct: purchased Carna Biosciences
Description: as §1

HER2 = biological target: T8, HER2 (Homo sapiens, UniProt P04626)
T8 construct: purchased Carna Biosciences
Description: as §1

RET = biological target: T9, RET (Homo sapiens, UniProt P07949)
T9 construct: purchased Carna Biosciences
Description: as §1

TNK1 = biological target: T10, TNK1 (Homo sapiens, UniProt Q13470)
T10 construct: purchased Carna Biosciences
Description: as §1

YES = biological target: T11, YES (Homo sapiens, UniProt P07947)
T11 construct: purchased Carna Biosciences
T11 sequence (P07947 whole entry): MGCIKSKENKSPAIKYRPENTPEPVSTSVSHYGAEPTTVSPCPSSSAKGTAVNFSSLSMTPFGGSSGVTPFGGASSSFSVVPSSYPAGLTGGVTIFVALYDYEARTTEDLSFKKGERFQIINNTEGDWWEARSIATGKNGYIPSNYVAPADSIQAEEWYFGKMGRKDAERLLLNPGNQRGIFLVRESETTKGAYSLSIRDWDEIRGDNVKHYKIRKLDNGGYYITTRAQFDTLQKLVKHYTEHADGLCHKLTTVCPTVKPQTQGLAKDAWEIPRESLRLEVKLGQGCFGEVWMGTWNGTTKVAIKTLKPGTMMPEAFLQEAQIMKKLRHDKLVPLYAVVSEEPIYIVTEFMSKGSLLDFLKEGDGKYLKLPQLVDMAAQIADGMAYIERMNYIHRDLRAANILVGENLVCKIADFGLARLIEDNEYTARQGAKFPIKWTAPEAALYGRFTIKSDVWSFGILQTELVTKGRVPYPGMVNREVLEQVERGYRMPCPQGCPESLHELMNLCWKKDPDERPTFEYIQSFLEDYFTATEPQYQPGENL
Description: as §1

AMPKα2/β1/γ1 = biological target: T12, AMPKα2/β1/γ1 (Homo sapiens, UniProt P54646)
T12 construct: purchased Carna Biosciences
Description: as §1

AurB = biological target: T13, AurB (Homo sapiens, UniProt Q96GD4)
T13 construct: purchased Carna Biosciences
Description: as §1

BRSK1 = biological target: T14, BRSK1 (Homo sapiens, UniProt Q8TDC3)
T14 construct: purchased Carna Biosciences
Description: as §1

DLK_Cascade = biological target: T15, DLK_Cascade (Homo sapiens, UniProt Q12852)
T15 construct: purchased Carna Biosciences
Description: as §1

CDK6/CycD3 = biological target: T16, CDK6/CycD3 (Homo sapiens, UniProt Q00534)
T16 construct: purchased Carna Biosciences
Description: as §1

CDK7/CycH/MAT1 = biological target: T17, CDK7/CycH/MAT1 (Homo sapiens, UniProt P50613)
T17 construct: purchased Carna Biosciences
Description: as §1

CK1γ3 = biological target: T18, CK1γ3 (Homo sapiens, UniProt Q9Y6M4)
T18 construct: purchased Carna Biosciences

CK2α1/β = biological target: T19, CK2α1/β (Homo sapiens, UniProt P68400)
T19 construct: purchased Carna Biosciences

DAPK1 = biological target: T20, DAPK1 (Homo sapiens, UniProt P53355)
T20 construct: purchased Carna Biosciences
Description: as §1

MAP4K2 = biological target: T21, MAP4K2 (Homo sapiens, UniProt Q12851)
T21 construct: purchased Carna Biosciences
Description: as §1

EEF2K = biological target: T22, EEF2K (Homo sapiens, UniProt O00418)
T22 construct: purchased Carna Biosciences
Description: as §1

GSK3α = biological target: T23, GSK3α (Homo sapiens, UniProt P49840)
T23 construct: purchased Carna Biosciences

HIPK2 = biological target: T24, HIPK2 (Homo sapiens, UniProt Q9H2X6)
T24 construct: purchased Carna Biosciences
Description: as §1

JNK2 = biological target: T25, JNK2 (Homo sapiens, UniProt P45984)
T25 construct: purchased Carna Biosciences

MAP2K2_Cascade = biological target: T26, MAP2K2_Cascade (Homo sapiens, UniProt P36507)
T26 construct: purchased Carna Biosciences
T26 sequence (P36507 whole entry): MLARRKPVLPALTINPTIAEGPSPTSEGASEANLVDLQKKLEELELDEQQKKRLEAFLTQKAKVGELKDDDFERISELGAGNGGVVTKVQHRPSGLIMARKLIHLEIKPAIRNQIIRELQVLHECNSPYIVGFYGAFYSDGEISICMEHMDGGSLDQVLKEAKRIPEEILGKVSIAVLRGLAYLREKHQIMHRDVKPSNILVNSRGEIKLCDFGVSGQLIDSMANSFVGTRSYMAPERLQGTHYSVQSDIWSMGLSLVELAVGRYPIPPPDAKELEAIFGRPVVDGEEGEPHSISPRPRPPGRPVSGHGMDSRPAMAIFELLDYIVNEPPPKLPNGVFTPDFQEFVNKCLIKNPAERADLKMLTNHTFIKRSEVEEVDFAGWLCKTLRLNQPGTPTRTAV

MAPKAPK5 = biological target: T27, MAPKAPK5 (Homo sapiens, UniProt Q8IW41)
T27 construct: purchased Carna Biosciences

MELK = biological target: T28, MELK (Homo sapiens, UniProt Q14680)
T28 construct: purchased Carna Biosciences
Description: as §1

MSK1 = biological target: T29, MSK1 (Homo sapiens, UniProt O75582)
T29 construct: purchased Carna Biosciences
T29 sequence (O75582 whole entry): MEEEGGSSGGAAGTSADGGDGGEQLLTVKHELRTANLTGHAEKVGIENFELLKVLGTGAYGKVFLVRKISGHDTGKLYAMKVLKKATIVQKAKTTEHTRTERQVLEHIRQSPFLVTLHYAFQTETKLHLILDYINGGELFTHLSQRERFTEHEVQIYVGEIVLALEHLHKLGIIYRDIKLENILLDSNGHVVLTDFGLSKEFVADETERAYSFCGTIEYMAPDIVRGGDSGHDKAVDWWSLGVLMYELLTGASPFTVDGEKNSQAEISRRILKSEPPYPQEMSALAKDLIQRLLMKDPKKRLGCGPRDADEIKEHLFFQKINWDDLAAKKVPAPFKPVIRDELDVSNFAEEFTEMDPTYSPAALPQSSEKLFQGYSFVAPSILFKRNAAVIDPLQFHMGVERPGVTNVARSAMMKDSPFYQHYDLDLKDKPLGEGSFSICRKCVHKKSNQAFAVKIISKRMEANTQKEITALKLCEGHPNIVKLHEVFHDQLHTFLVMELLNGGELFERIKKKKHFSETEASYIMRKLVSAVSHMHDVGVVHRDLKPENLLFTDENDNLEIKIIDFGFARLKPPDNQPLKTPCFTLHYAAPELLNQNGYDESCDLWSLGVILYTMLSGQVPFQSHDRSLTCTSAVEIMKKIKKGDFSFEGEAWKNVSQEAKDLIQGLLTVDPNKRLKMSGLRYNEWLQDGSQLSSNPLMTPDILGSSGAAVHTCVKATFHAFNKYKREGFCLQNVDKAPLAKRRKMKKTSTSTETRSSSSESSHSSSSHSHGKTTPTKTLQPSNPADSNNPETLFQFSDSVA
Description: as §1

MSSK1 = biological target: T30, MSSK1 (Homo sapiens, UniProt Q9UPE1)
T30 construct: purchased Carna Biosciences
Description: as §1

NEK2 = biological target: T31, NEK2 (Homo sapiens, UniProt P51955)
T31 construct: purchased Carna Biosciences

PAK5 = biological target: T32, PAK5 (Homo sapiens, UniProt Q9P286)
T32 construct: purchased Carna Biosciences
T32 sequence (Q9P286 whole entry): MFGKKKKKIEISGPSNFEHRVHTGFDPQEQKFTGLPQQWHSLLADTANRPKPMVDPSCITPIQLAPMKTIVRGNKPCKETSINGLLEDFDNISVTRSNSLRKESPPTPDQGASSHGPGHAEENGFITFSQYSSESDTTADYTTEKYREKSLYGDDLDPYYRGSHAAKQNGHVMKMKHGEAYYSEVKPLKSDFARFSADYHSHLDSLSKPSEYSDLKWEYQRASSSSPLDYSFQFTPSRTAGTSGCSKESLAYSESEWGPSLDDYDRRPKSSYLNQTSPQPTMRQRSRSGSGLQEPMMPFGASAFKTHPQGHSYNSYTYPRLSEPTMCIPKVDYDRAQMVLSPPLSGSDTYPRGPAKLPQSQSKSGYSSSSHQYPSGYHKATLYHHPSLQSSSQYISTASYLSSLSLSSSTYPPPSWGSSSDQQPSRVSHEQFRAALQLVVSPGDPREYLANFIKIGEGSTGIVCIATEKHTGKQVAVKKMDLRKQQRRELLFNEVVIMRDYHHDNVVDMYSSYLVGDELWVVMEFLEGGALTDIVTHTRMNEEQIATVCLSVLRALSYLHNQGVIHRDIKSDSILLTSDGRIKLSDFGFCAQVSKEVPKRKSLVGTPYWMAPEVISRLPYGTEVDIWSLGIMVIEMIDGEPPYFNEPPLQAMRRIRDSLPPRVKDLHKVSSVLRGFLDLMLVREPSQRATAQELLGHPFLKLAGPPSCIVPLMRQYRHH
Description: as §1

PHKG2 = biological target: T33, PHKG2 (Homo sapiens, UniProt P15735)
T33 construct: purchased Carna Biosciences
Description: as §1

PIM2 = biological target: T34, PIM2 (Homo sapiens, UniProt Q9P1W9)
T34 construct: purchased Carna Biosciences
Description: as §1

PIM3 = biological target: T35, PIM3 (Homo sapiens, UniProt Q86V86); details: 10 µM FINDY
T35 construct: purchased Carna Biosciences

PKCγ = biological target: T36, PKCγ (Homo sapiens, UniProt P05129)
T36 construct: purchased Carna Biosciences
Description: as §1

TSSK3 = biological target: T37, TSSK3 (Homo sapiens, UniProt Q96PN8)
T37 construct: purchased Carna Biosciences
Description: as §1

ROCK1 = biological target: T38, ROCK1 (Homo sapiens, UniProt Q13464)
T38 construct: purchased Carna Biosciences

RSK3 = biological target: T39, RSK3 (Homo sapiens, UniProt Q15349)
T39 construct: purchased Carna Biosciences

RSK4 = biological target: T40, RSK4 (Homo sapiens, UniProt Q9UK32)
T40 construct: purchased Carna Biosciences
T40 sequence (Q9UK32 whole entry): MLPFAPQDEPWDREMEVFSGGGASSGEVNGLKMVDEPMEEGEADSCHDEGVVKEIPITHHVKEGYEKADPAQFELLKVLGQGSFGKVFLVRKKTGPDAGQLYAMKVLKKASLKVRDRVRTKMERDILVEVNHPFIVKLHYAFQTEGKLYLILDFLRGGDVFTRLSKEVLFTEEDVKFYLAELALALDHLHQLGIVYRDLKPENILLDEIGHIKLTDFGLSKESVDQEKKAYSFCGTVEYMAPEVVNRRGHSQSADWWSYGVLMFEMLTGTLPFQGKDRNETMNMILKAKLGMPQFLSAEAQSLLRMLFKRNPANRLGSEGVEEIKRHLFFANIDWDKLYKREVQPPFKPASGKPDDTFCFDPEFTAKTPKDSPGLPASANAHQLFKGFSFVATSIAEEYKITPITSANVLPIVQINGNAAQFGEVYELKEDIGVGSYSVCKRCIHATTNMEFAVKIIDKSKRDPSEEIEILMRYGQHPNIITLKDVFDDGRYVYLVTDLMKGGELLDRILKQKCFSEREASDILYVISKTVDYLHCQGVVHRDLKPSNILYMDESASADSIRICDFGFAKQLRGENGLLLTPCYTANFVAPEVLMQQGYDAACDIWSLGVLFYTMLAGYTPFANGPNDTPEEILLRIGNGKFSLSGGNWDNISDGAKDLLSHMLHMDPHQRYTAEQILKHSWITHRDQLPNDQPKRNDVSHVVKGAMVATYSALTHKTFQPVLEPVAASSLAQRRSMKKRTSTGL

TAK1-TAB1_Cascade = biological target: T41, TAK1-TAB1_Cascade (Homo sapiens, UniProt O43318)
T41 construct: purchased Carna Biosciences
Description: as §1

TSSK1 = biological target: T42, TSSK1 (Homo sapiens, UniProt Q9BXA7)
T42 construct: purchased Carna Biosciences
Description: as §1

PIK3CA/PIK3R1 = biological target: T43, PIK3CA/PIK3R1 (Homo sapiens, UniProt P42336)
T43 construct: purchased Carna Biosciences
Description: as §1

WNK3 = biological target: T44, WNK3 (Homo sapiens, UniProt Q9BYP7)
T44 construct: purchased Carna Biosciences
Description: as §1

Q: `COc1ccc(/C=C2\SC(=S)NC2=O)cc1C#C[Si](C)(C)C` [FINDY] was tested. Which inhibition at 10 µM (ARG) did it give?
A: Its inhibition at 10 µM is 15.2%.

Q: What about the inhibition at 10 µM (DDR1) of the same compound?
A: The inhibition at 10 µM was -3.2%.

Q: And the inhibition at 10 µM (EGFR)?
A: Its inhibition at 10 µM is -5.1%.

Q: And the inhibition at 10 µM (EPHA1)?
A: Its inhibition at 10 µM is 40.5%.

Q: And the inhibition at 10 µM (EPHA2)?
A: The inhibition at 10 µM was 16.3%.

Q: And the inhibition at 10 µM (EPHA6)?
A: The inhibition at 10 µM was 59.4%.

Q: And the inhibition at 10 µM (FLT3)?
A: Its inhibition at 10 µM is 16%.

Q: And the inhibition at 10 µM (HER2)?
A: The inhibition at 10 µM was -0.1%.

Q: What about the inhibition at 10 µM (RET) of the same compound?
A: The inhibition at 10 µM was 12.6%.

Q: And the inhibition at 10 µM (TNK1)?
A: Its inhibition at 10 µM is 7.3%.

Q: And the inhibition at 10 µM (YES)?
A: The inhibition at 10 µM was 6.4%.

Q: What about the inhibition at 10 µM (AMPKα2/β1/γ1) of the same compound?
A: Its inhibition at 10 µM is 1.7%.

Q: And the inhibition at 10 µM (AurB)?
A: The inhibition at 10 µM was 35.7%.

Q: What about the inhibition at 10 µM (BRSK1) of the same compound?
A: The inhibition at 10 µM was 24.3%.

Q: What about the inhibition at 10 µM (DLK_Cascade) of the same compound?
A: Its inhibition at 10 µM is 23.5%.

Q: And the inhibition at 10 µM (CDK6/CycD3)?
A: The inhibition at 10 µM was 3.2%.

Q: And the inhibition at 10 µM (CDK7/CycH/MAT1)?
A: Its inhibition at 10 µM is 15.2%.

Q: What about the inhibition at 10 µM (CK1γ3) of the same compound?
A: The inhibition at 10 µM was 15.9%.

Q: What about the inhibition at 10 µM (CK2α1/β) of the same compound?
A: The inhibition at 10 µM was 45.4%.

Q: And the inhibition at 10 µM (DAPK1)?
A: Its inhibition at 10 µM is 14.8%.

Q: What about the inhibition at 10 µM (MAP4K2) of the same compound?
A: Its inhibition at 10 µM is 3.3%.

Q: And the inhibition at 10 µM (EEF2K)?
A: The inhibition at 10 µM was -3.7%.

Q: And the inhibition at 10 µM (GSK3α)?
A: Its inhibition at 10 µM is 43.4%.

Q: What about the inhibition at 10 µM (HIPK2) of the same compound?
A: The inhibition at 10 µM was 6.2%.

Q: And the inhibition at 10 µM (JNK2)?
A: The inhibition at 10 µM was 0.4%.

Q: What about the inhibition at 10 µM (MAP2K2_Cascade) of the same compound?
A: The inhibition at 10 µM was 38.8%.

Q: What about the inhibition at 10 µM (MAPKAPK5) of the same compound?
A: The inhibition at 10 µM was 5.2%.

Q: And the inhibition at 10 µM (MELK)?
A: Its inhibition at 10 µM is 20.6%.

Q: And the inhibition at 10 µM (MSK1)?
A: Its inhibition at 10 µM is 3.8%.

Q: What about the inhibition at 10 µM (MSSK1) of the same compound?
A: Its inhibition at 10 µM is 6.6%.

Q: And the inhibition at 10 µM (NEK2)?
A: The inhibition at 10 µM was -5.1%.

Q: And the inhibition at 10 µM (PAK5)?
A: The inhibition at 10 µM was -7%.

Q: What about the inhibition at 10 µM (PHKG2) of the same compound?
A: Its inhibition at 10 µM is 1.9%.

Q: And the inhibition at 10 µM (PIM2)?
A: Its inhibition at 10 µM is 67.4%.

Q: What about the inhibition at 10 µM (PIM3) of the same compound?
A: The inhibition at 10 µM was 83.1%.

Q: And the inhibition at 10 µM (PKCγ)?
A: Its inhibition at 10 µM is 4.1%.

Q: And the inhibition at 10 µM (TSSK3)?
A: The inhibition at 10 µM was 20.3%.

Q: What about the inhibition at 10 µM (ROCK1) of the same compound?
A: The inhibition at 10 µM was 6.8%.

Q: And the inhibition at 10 µM (RSK3)?
A: The inhibition at 10 µM was 28%.

Q: And the inhibition at 10 µM (RSK4)?
A: The inhibition at 10 µM was 29.6%.

Q: And the inhibition at 10 µM (TAK1-TAB1_Cascade)?
A: Its inhibition at 10 µM is 52.7%.

Q: And the inhibition at 10 µM (TSSK1)?
A: The inhibition at 10 µM was 3.3%.

Q: And the inhibition at 10 µM (PIK3CA/PIK3R1)?
A: Its inhibition at 10 µM is 12.8%.

Q: What about the inhibition at 10 µM (WNK3) of the same compound?
A: The inhibition at 10 µM was 18.9%.
